The assay deals with Salmonella enterica serovar Typhimurium SL1344. Put plainly: Growth inhibition assay. Format: cell-based. The settings on record: 10 µM, MHB, 1 × 10^5 CFU/mL input, aerobic, 24 h. On the procedure:
Aerobic bacterial culture was conducted with E. coli K12 MG1655 (provided by D. Lee), E. coli Nissle 1917, and S. enterica serovar Typhimurium SL1344 (provided by D. Bumann, Biocenter Basel, Switzerland). The strains were streaked on lysogeny broth plates, incubated o.n. at 37°C and cultured in non-cation-adjusted MHB with aeration at 37°C and 220 rpm constant shaking.
To determine the MIC value, broth microdilutions were performed according to the standard protocol with some modifications ([119]). An overnight bacterial culture was diluted in a fresh ColB medium and grown to OD600 0.5 (mid-exponential phase). Fusobacteria were then diluted 1:2,500 or 1:250 in fresh MHB to obtain 1 × 10^5 CFU/mL or 1 × 10^6 CFU/mL as indicated. To determine the growth inhibition of P. gingivalis, an o.n. culture grown in BHI+ was diluted 1:1,500 in MHB to obtain 1 × 10^5 CFU/mL. E. coli K12, E. coli Nissle 1917, and S. enterica o.n. cultures grown in MHB were diluted 1:1,800 in fresh MHB to obtain 1 × 10^5 CFU/mL. […] Bacterial growth was monitored by measuring OD600 every 20 min with constant shaking in a plate reader (Biotek) under the normal atmospheric environment or positioned in the anaerobic chamber with double orbital shaking every 20 min prior to each measurement with 237 cpm at 37°C for 120 h.

The record followed here is PMC12153356, “An antisense oligomer conjugate with unpredicted bactericidal activity against Fusobacterium nucleatum” (mBio, 2025).

On to “(RXR)4XB-GACATAATTGT [FUS79, non-targeting (RXR)4XB-PNA 11-mer control, (RXR)4XB-…]”, for which the “Effect on growth of S. enterica” value is given as “no specific bactericidal effect”.
